Tests used:
[1] = test system: SH-SY5Y human neuroblastoma cells expressing EGFP-alphasynuclein-A53T; assay: Mutated α-synuclein aggregation in transfected SH-SY5Y cells; format: cell-based; conditions: 5 μM, 24 h
Method: Mutated α-synuclein protein aggregation are indicated by white arrows, GFP α-synuclein protein (green) and β-tubulin (red). The images were acquired using the Operetta CLS automated confocal microscope, using the 40× water immersion objective.
(§1) SH-SY5Y human neuroblastoma cells were maintained in Dulbecco's modified Eagle's medium (DMEM) supplemented with 10% fetal bovine serum (FBS), 2 mM L-glutamine and 100 U/mL penicillin-0.1 mg/mL streptomycin at 37° C. and 5% CO2.
(§2) To study the effect of compounds on mutated huntingtin and synuclein that accumulates in cells, SH-SY5Y were transfected with a constitutively active mutated-huntingtin expression vector pEGFP-Q74 (encoding EGFP protein fused to a fragment of huntingtin corresponding to the exon 1 with 74 CAG repeats; c.54GCA[74]; Addgene; #40262) and EGFP-alphasynuclein-A53T (Addgene; #40823).
(§3) For transfection assays, cells were seeded (30×10^3 cells/cm^2) on 96-multiwell plates (coated with poliornitine-fibronectine). Cells were transfected with 0.3 μg pEGFP-Q74 plasmid using LTX with Plus Reagent according to the manufacturer's instructions (Thermo Fisher). After 24-h, the medium was changed with a new one, and cells were treated with increasing amounts of GKK1032C and CL0670 (0.1 μM, 1 μM and 5 μM) or DMSO (control cells) for 24 h at 37° C. […]

[2] = test system: SH-SY5Y human neuroblastoma cells expressing mutated huntingtin (pEGFP-Q74); assay: Mutated huntingtin aggregation in transfected SH-SY5Y cells; format: cell-based; conditions: 5 μM, 24 h
Method: Mutated huntingtin proteins aggregation are indicated by white arrows, GFP huntingtin protein (green) and β-tubulin (red). The images were acquired using the Operetta CLS automated confocal microscope, using the 40× water immersion objective.
as §1, §2, §3

[3] = test system: rat cortical primary neurons; assay: H2O2 formation in cortical primary neurons treated with L-BSO and rotenone (Amplex Red); format: cell-based
Method: The data are presented as the mean values±[…] of the mean (SEM) from n=6 (i.e., 6 independent wells measured independently).
After this period, cells were again washed and determined the rate of H2O2 production during the next 2 h.

[4] = test system: rat cortical primary neurons; assay: Protein concentration in neurons incubated with L-BSO and rotenone (neuronal death); format: cell-based; conditions: L-BSO and rotenone 3 or 6 h with compound at 0.1, 1 or 5 μg/ml; effect as from 0.1 μg/ml (6 h) (FIG. 4)
[5] = Pharmacokinetics in plasma and brain after intraperitoneal administration; format: in vivo, female C57BL/6 mice; conditions: 150 mg/Kg intraperitoneal
Method: FIG. 10 represents the concentration of Compound I in plasma and brain of female C57BL/6 mice collected at t=0 min, 5 min, 15 min, 30 min, 1 hour, 4 hours, 10 hours, 24 hours and 48 hours.
The Maximum Tolerated Dose (MTD) and Pharmacokinetics (PK) of compound I were determined after intraperitoneal administration to female C57BL/6 (˜25 g) 9 weeks old mice. The injection comprised a 150 mg/Kg dose of compound I in Creomophor-EtOH-H2O (10:5:85). The concentrations of GKK1032C in plasma and brain were determined at different times per duplicate (pre-dose, 5 min, 15 min, 30 min, 1 h, 4 h, 10 h, 24 h and 48 h) using a previously validated analytical method. […] The highest concentration in the brain is 850 ng/mL at 4 hours after injection and progressively declined until reaching the control levels at 24 hours post-administration.

C57BL6/J male mice [6] = assay: Rotarod test under normal conditions; format: in vivo; conditions: once-daily 150 mg/kg intraperitoneal for 3 days, normal mice (FIG. 11)
Method: FIG. 11 represents the results from the rotarod test to 8 weeks-old C57BL6/J male mice separated in two groups: Control (mice injected with vehicle) and Compound I (mice injected with a once-daily dose of 150 mg/kg of Compound I).
(§4) Experiments were conducted to evaluate if the intraperitoneal administration of Compound I to mice would have any effect in the animal's motor coordination, fear/anxiety and short-term memory behaviour. The motivation for this experiment is to determine if, under normal conditions, the injection of compound I would affect the behaviour of 8 weeks-old C57BL6/J male mice, in vivo. Mice were separated in group I (vehicle injection only) and group II (compound I injection). The mice were injected with a once-daily dose of 150 mg/kg for 3 days. The tests consisted in the rotarod performance test (at day 1, 2, 3 and 4), the open field test (at day 2 and 3) and the novel object recognition test (at day 4 only).

C57BL6/J male mice [7] = assay: Novel Object Recognition test under normal conditions; format: in vivo; conditions: once-daily 150 mg/kg intraperitoneal for 3 days, test at day 4
Method: as §4

Compound | mutated synuclein and number of aggregates [1] | mutated huntingtin and number of aggregates [2] | rate of H2O2 formation by the neurons ([3]; L-BSO + rotenone 6 h, washed, then compound added at 1 and 5 μg/ml, H2O2 release recorded 2 h (FIG. 1)) | rate of H2O2 formation ([3]; compound 1 μg/ml together with L-BSO and rotenone for 6 h, washed, recorded 2 h (FIG. 2)) | H2O2 formation in untreated neurons ([3]; pre-treatment 5 μg/ml for 72 h, no L-BSO/rotenone (FIG. 3)) | L-BSO+rotenone-induced H2O2 formation ([3]; pre-treatment 5 μg/ml for 72 h, washed, then L-BSO and rotenone 6 h, recorded 2 h (FIG. 3)) | decrease in protein concentration remaining in the wells (neuronal death) [4] | highest concentration in the plasma ([5]; Creomophor-EtOH-H2O (10:5:85), mice (FIG. 10)) | crossing of the blood-brain barrier ([5]; mice) | duration of high levels in the brain ([5]; mice) | highest concentration in the brain ([5]; mice) | time at which brain concentration reaches the control levels post-administration ([5]; mice) | time of highest concentration in the brain after injection ([5]; mice) | time of highest concentration in the plasma after injection ([5]; mice) | motor coordination (rotarod) (C57BL6/J male mice [6]) | short-term memory (Novel Object Recognition) (C57BL6/J male mice [7])
C=CC1(C)C=C(C)C2C3C(Oc4ccc(cc4)CC4C(=O)NC(O)C4C(=O)C31)C1C(C)CC(C)CC21C (centres unmarked) [CL0670] | significantly decreased | significantly decreased |  |  |  |  |  |  |  |  |  |  |  |  |  | 
C=CC1(C)C=C(C)C2C3C(Oc4ccc(cc4)CC4(O)NC(=O)C5(OC45)C(=O)C31)C1C(C)CC(C)CC21C (centres unmarked) [Compound I] | significantly decreased |  | dose-dependently decreased | significantly impaired | prevented | very significantly prevented | dose-dependently prevented such decrease | 30000 ng/mL | successfully crosses the blood-brain barrier | about 18 hours | 850 ng/mL | 24 h | 4 h | 4 h | no effect | did not alter

— US20220177484A1, “MACROCYCLES WITH ANTIOXIDANT AND NEUROPROTECTIVE ACTIVITIES” (INSTITUTO BIOMAR, S.A, priority 2019, published 2022)
